Where two headings read alike, the source gives them in different places.
Assays:
[1] = tested on: LNCaP tumor-bearing mice; details: mouse, in vivo
[2] = tested on: LNCaP tumor-bearing mice; assay: Radioligand therapy study in LNCaP tumor-bearing NRG mice
[3] = tested on: LNCaP tumor-bearing mice; assay: Ex vivo biodistribution of 177Lu-labeled ligands in LNCaP tumor-bearing NRG mice
[4] = 1 h post-injection, listed as [177Lu]Lu-HTK03149
[5] = 4 h post-injection, listed as [177Lu]Lu-HTK03149

SMILES: O=C([O-])CN1CCN(CC(=O)[O-])CCN(CC(=O)NCC2CCC(C(=O)NC(Cc3c4ccccc4cc4ccccc34)C(=O)NCCCCC(NC(=O)NC(CCCC(=O)O)C(=O)O)C(=O)O)CC2)CCN(CC(=O)[O-])CC1.[177Lu+3] (centres unmarked) [[^177Lu]Lu-HTK03149]
- Spleen uptake [1]: 0.142 ± 0.062 %IA/g
- Median survival ([2]; 9.3 MBq injected): 52 days
- Median survival ([2]; 18.5 MBq injected): 63 days
- Median survival ([2]; 37 MBq injected): 88 days
- Median survival ([2]; 74 MBq injected): 142 days
- Median survival ([2]; 148 MBq injected): >180 days
- Weight loss of treated mice ([2]; injected radioactivity as high as 148 MBq): did not observe any weight loss
- Adrenal glands uptake ([3]; 1 h post-injection): 0.352 ± 0.071 %IA/g
- Blood uptake ([3]; 1 h post-injection): 0.876 ± 0.073 %IA/g
- Blood:Salivary gland uptake ratio ([3]; 1 h post-injection): 3.98 ± 0.65
- Bone uptake ([3]; 1 h post-injection): 0.072 ± 0.020 %IA/g
- Brain uptake ([3]; 1 h post-injection): 0.022 ± 0.002 %IA/g
- Fat uptake ([3]; 1 h post-injection): 0.136 ± 0.049 %IA/g
- Heart uptake ([3]; 1 h post-injection): 0.281 ± 0.036 %IA/g
- Intestines uptake ([3]; 1 h post-injection): 0.267 ± 0.063 %IA/g
- Kidneys uptake ([3]; 1 h post-injection): 7.67±1.35 %IA/g
- Lacrimal glands uptake ([3]; 1 h post-injection): 0.022 ± 0.006 %IA/g
- Liver uptake ([3]; 1 h post-injection): 0.264 ± 0.031 %IA/g
- Lungs uptake ([3]; 1 h post-injection): 0.721 ± 0.056 %IA/g
- Muscle uptake ([3]; 1 h post-injection): 0.182 ± 0.138 %IA/g
- Pancreas uptake ([3]; 1 h post-injection): 0.165 ± 0.028 %IA/g
- Salivary glands uptake ([3]; 1 h post-injection): 0.23±0.06 %IA/g
- Spleen uptake ([3]; 1 h post-injection): 0.260 ± 0.045 %IA/g
- Stomach uptake ([3]; 1 h post-injection): 0.096 ± 0.020 %IA/g
- Testes uptake ([3]; 1 h post-injection): 0.255 ± 0.019 %IA/g
- Thyroid uptake ([3]; 1 h post-injection): 0.269 ± 0.021 %IA/g
- Tumor uptake ([3]; 1 h post-injection): 13.96 ± 2.155 %IA/g
- Tumor:Blood uptake ratio ([3]; 1 h post-injection): 16.0 ± 2.44
- Tumor:Muscle uptake ratio ([3]; 1 h post-injection): 101 ± 48.3
- Tumor:Salivary gland uptake ratio ([3]; 1 h post-injection): 63.4 ± 13.6
- Kidneys uptake [3, 4]: 7.672 ± 1.346 %IA/g
- Salivary glands uptake [3, 4]: 0.227 ± 0.062 %IA/g
- Adrenal glands uptake ([3]; 4 h post-injection): 0.085 ± 0.007 %IA/g
- Blood uptake ([3]; 4 h post-injection): 0.167 ± 0.033 %IA/g
- Blood:Salivary gland uptake ratio ([3]; 4 h post-injection): 3.32 ± 0.59
- Bone uptake ([3]; 4 h post-injection): 0.016 ± 0.010 %IA/g
- Brain uptake ([3]; 4 h post-injection): 0.010 ± 0.001 %IA/g
- Fat uptake ([3]; 4 h post-injection): 0.021 ± 0.003 %IA/g
- Heart uptake ([3]; 4 h post-injection): 0.070 ± 0.013 %IA/g
- Intestines uptake ([3]; 4 h post-injection): 0.185 ± 0.067 %IA/g
- Kidneys uptake ([3]; 4 h post-injection): 1.67±0.38 %IA/g
- Lacrimal glands uptake ([3]; 4 h post-injection): 0.029 ± 0.014 %IA/g
- Liver uptake ([3]; 4 h post-injection): 0.108 ± 0.010 %IA/g
- Lungs uptake ([3]; 4 h post-injection): 0.169 ± 0.012 %IA/g
- Muscle uptake ([3]; 4 h post-injection): 0.021 ± 0.005 %IA/g
- Pancreas uptake ([3]; 4 h post-injection): 0.034 ± 0.004 %IA/g
- Salivary glands uptake ([3]; 4 h post-injection): 0.05±0.01 %IA/g
- Spleen uptake ([3]; 4 h post-injection): 0.089 ± 0.020 %IA/g
- Stomach uptake ([3]; 4 h post-injection): 0.049 ± 0.021 %IA/g
- Testes uptake ([3]; 4 h post-injection): 0.056 ± 0.005 %IA/g
- Thyroid uptake ([3]; 4 h post-injection): 0.066 ± 0.008 %IA/g
- Tumor uptake ([3]; 4 h post-injection): 20.9±2.99 %IA/g
- Tumor:Muscle uptake ratio ([3]; 4 h post-injection): 1028 ± 227
- Tumor:Salivary gland uptake ratio ([3]; 4 h post-injection): 415 ± 60.5
- Kidneys uptake [3, 5]: 1.666 ± 0.378 %IA/g
- Salivary glands uptake [3, 5]: 0.051 ± 0.010 %IA/g
- Tumor uptake [3, 5]: 20.90 ± 2.988 %IA/g
- Adrenal glands uptake ([3]; 24 h post-injection): 0.073 ± 0.018 %IA/g
- Blood uptake ([3]; 24 h post-injection): 0.116 ± 0.007 %IA/g
- Blood:Salivary gland uptake ratio ([3]; 24 h post-injection): 2.37 ± 0.24
- Bone uptake ([3]; 24 h post-injection): 0.025 ± 0.003 %IA/g
- Brain uptake ([3]; 24 h post-injection): 0.006 ± 0.001 %IA/g
- Fat uptake ([3]; 24 h post-injection): 0.017 ± 0.002 %IA/g
- Heart uptake ([3]; 24 h post-injection): 0.065 ± 0.004 %IA/g
- Intestines uptake ([3]; 24 h post-injection): 0.086 ± 0.047 %IA/g
- Kidneys uptake ([3]; 24 h post-injection): 0.596 ± 0.109 %IA/g
- Lacrimal glands uptake ([3]; 24 h post-injection): 0.004 ± 0.005 %IA/g
- Liver uptake ([3]; 24 h post-injection): 0.103 ± 0.008 %IA/g
- Lungs uptake ([3]; 24 h post-injection): 0.122 ± 0.015 %IA/g
- Muscle uptake ([3]; 24 h post-injection): 0.017 ± 0.003 %IA/g
- Pancreas uptake ([3]; 24 h post-injection): 0.032 ± 0.005 %IA/g
